Patent US9512130B2, “Substituted imidazopyridazines” (BAYER PHARMA AKTIENGESELLSCHAFT, priority 2013, dated 2016)

Tests used:
[1] = tested on: HeLa cells; test: Proliferation Assay with HeLa cells; format: cell-based; settings: Homo sapiens, 96 h, 4 days incubation, crystal violet staining
Procedure: After 24 hours, the cells of one plate (zero-point plate) were stained with crystal violet (see below), while the medium of the other plates was replaced by fresh culture medium (200 μl), to which the test substances were added in various concentrations (0 μM, as well as in the range of 0.01-30 μM; the final concentration of the solvent dimethyl sulfoxide was 0.5%). The cells were incubated for 4 days in the presence of test substances. […] After three washing cycles of the fixed cells with water, the plates were dried at room temperature. The cells were stained by adding 100 μl/measuring point of a 0.1% crystal violet solution (pH 3.0). After three washing cycles of the stained cells with water, the plates were dried at room temperature. The dye was dissolved by adding 100 μl/measuring point of a 10% acetic acid solution. The extinction was determined by photometry at a wavelength of 595 nm. The change of cell number, in percent, was calculated by normalization of the measured values to the extinction values of the zero-point plate (=0%) and the extinction of the untreated (0 μm) cells (=100%). The IC50 values were determined by means of a 4 parameter fit using the company's own software.

[2] = molecular target: T1, human CYP3A4 (Homo sapiens (Human), UniProt P08684); test: Determination of mechanism-based inhibition of human CYP3A4; format: in vitro ADME; settings: irreversible CYP3A4 inactivation; inactivator molecules metabolized per CYP3A4 molecule inactivated; testosterone substrate
Procedure: Determination of Mechanism-Based Inhibition of Human CYP3A4
The test compound was incubated at 37° C. in a concentration-NADPH-, and time-dependent setting. Therefore, the test compound was incubated at 4 different concentrations (e.g.: 1, 2, 5, 10 μM) in the presence of NADPH ([…]) and regenerating system in phosphate-buffered saline ([…], pH 7.4) The highest concentration of test compound was incubated without NADPH and therefore served as the NADPH-deficient control. In addition, acetonitrile as a vehicle control (negative control) and mibefradil as positive control for irreversible CYP3A4 inactivation were also included using identical assay conditions.
Each mixture was incubated with the enzyme (preincubation) for up to 50 minutes.
Afterwards, the reaction in the main incubation was stopped by the addition of acetonitrile (containing an internal standard), the protein was allowed to precipitate by placing the mixture into an ice bath. Subsequently, the mixture was centrifuged to pelletize the protein and the supernatants were analyzed by HPLC-MS for the isoform specific metabolite e.g. […] and the remaining amount of the test compound.
In parallel the turnover of the substrate was plotted against the preincubation time.

[3] = In vitro metabolic stability in rat hepatocytes; format: in vitro ADME; settings: maximal oral bioavailability calculated from half-life in Han Wistar rat hepatocytes, 1 μM test compound
Procedure: Investigation of In Vitro Metabolic Stability in Rat Hepatocytes (Including Calculation of Hepatic In Vivo Blood Clearance (CL)) Hepatocytes from Han Wistar rats were isolated via a 2-step perfusion method. After perfusion, the liver was carefully removed from the rat: the liver capsule was opened and the hepatocytes were gently shaken out into a Petri dish with ice-cold WME. The resulting cell suspension was filtered through sterile gaze in 50 ml falcon tubes and centrifuged at 50×g for 3 min at room temperature. The cell pellet was resuspended in 30 ml WME and centrifuged through a Percoll® gradient for 2 times at 100×g. The hepatocytes were washed again with Williams' medium E (WME) and resuspended in medium containing 5% FCS. Cell viability was determined by trypan blue exclusion. For the metabolic stability assay liver cells were distributed in WME containing 5% FCS to glass vials at a density of 1.0×10^6 vital cells/mL. […] During incubation, the hepatocyte suspensions were continuously shaken and aliquots were taken at 2, 8, 16, 30, 45 and 90 min, to which equal volumes of cold methanol were immediately added. Samples were frozen at −20° C. over night, after subsequently centrifuged for 15 minutes at 3000 rpm and the supernatant was analyzed with an Agilent 1200 HPLC-system with LCMS/MS detection. The half-life of a test compound was determined from the concentration-time plot. From the half-life the intrinsic clearances were calculated. Together with the additional parameters liver blood flow, amount of liver cells in vivo and in vitro. The hepatic in vivo blood clearance (CL) and the maximal oral bioavailability (Fmax) was calculated. The following parameter values were used: Liver blood flow—4.2 L/h/kg rat; specific liver weight—32 g/kg rat body weight; liver cells in vivo—1.1×10^8 cells/g liver, liver cells in vitro—0.5×10^6/ml.

[4] = tested on: spindle assembly checkpoint (Mps-1) in HeLa cells; test: cells; format: cell-based; settings: Homo sapiens; HeLa cells arrested with nocodazole, 4 h with test compound, phospho-histone H3 (Ser10) readout; read-out: SAC
Text: Spindle Assembly Checkpoint Assay
The spindle assembly checkpoint assures the proper segregation of chromosomes during mitosis. Upon entry into mitosis, chromosomes begin to condensate which is accompanied by the phosphorylation of histone H3 on serine 10. Dephosphorylation of histone H3 on serine 10 begins in anaphase and ends at early telophase. Accordingly, phosphorylation of histone H3 on serine 10 can be utilized as a marker of cells in mitosis. Nocodazole is a microtubule destabilizing substance. Thus, nocodazole interferes with microtubule dynamics and mobilises the spindle assembly checkpoint. […] An inhibition of the spindle assembly checkpoint by Mps-1 inhibitors overrides the mitotic blockage in the presence of nocodazole, and the cells complete mitosis prematurely. This alteration is detected by the decrease of cells with phosphorylation of histone H3 on serine 10. This decline is used as a marker to determine the capability of compounds of the present invention to induce a mitotic breakthrough.
Cultivated cells of the human cervical tumour cell line HeLa (ATCC CCL-2) were plated at a density of 2500 cells/well in a 384-well microtiter plate in 20 μl Dulbeco's Medium (w/o phenol red, w/o sodium pyruvate, w 1000 mg/ml glucose, w pyridoxine) supplemented with 1% (v/v) glutamine, 1% (v/v) penicillin, 1% (v/v) streptomycin and 10% (v/v) fetal calf serum. After incubation overnight at 37° C., 10 μl/well nocodazole at a final concentration of 0.1 μg/ml were added to cells. After 24 h incubation, cells were arrested at G2/M phase of the cell cycle progression. […] Images were acquired with a Perkin Elmer OPERA™ High-Content Analysis reader. Images were analyzed with image analysis software MetaXpress™ from Molecular devices utilizing the Cell Cycle application module. […] The raw assay data were further analysed by four parameter logistic regression analysis to determine the IC50 value for each tested compound.

[5] = molecular target: T1, human CYP3A4; test: Determination of inhibitory potential on human CYP3A4; format: in vitro ADME; settings: human liver microsomes, midazolam as probe substrate
Procedure: Determination of Inhibitory Potential on Human CYP3A4
The potential of the test compound to act as a competitive inhibitor of CYP3A4 was evaluated in in vitro assays, using human liver microsomes and the reference substrate midazolam. The test compound was solved in acetonitrile. Human liver microsomal preparation (pool of HLM) was applied for the assay. A stock solution of the test compound was added to phosphate buffer containing EDTA, NADP, glucose 6-phosphate, and glucose 6-phosphate dehydrogenase. This mixture was sequentially diluted on a Genesis Workstation (Tecan, Crailsheim, FRG). After pre-warming, reaction was initiated by addition of a mixture of probe substrate (midazolam). […] The reference samples (substrate, but no inhibitor) were incubated in parallel in sextuple and contained the same amount of solvent as the test incubations. Reactions were stopped by addition of 100 μL acetonitrile containing the internal standard. Precipitated proteins were removed by centrifugation of the well plate, supernatants were analyzed by LC-MS/MS.
The CYP3A4-mediated metabolic activity in the presence of the test compounds was expressed as percentages of the corresponding reference value. A sigmoid-shaped curve was fitted to the data to calculate the enzyme inhibition parameter IC50 using a nonlinear least-squares regression analysis of the plot of percent control activity versus concentration of the test inhibitor.

T1 sequence (P08684 whole entry): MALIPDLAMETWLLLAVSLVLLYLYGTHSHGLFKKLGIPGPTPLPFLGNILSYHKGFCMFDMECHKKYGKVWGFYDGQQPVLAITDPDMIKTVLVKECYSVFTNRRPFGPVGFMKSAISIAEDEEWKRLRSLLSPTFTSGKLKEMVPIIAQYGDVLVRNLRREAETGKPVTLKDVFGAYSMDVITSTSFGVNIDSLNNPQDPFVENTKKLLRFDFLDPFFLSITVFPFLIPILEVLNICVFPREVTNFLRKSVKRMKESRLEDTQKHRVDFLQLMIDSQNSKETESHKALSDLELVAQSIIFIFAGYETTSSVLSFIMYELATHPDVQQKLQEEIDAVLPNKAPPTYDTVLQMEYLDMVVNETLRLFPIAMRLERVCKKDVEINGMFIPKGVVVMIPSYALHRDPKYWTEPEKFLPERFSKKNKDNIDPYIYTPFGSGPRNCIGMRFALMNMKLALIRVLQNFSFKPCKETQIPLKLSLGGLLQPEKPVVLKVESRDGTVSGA

Row | Structure (SMILES) | IC50 [1] | CYP3A4 partition ratio [2] | Fmax rat hep [3] | IC50 [4] | IC50 [5]
1 | COc1ccc(Oc2cc(NCC3COC3)c3ncc(-c4ccc(C(=O)NC5CC5)c(C)c4)n3n2)cc1F [Example 1, N-cyclopropyl-4-{6-(3-fluoro-4-methoxyphenoxy)-8-[(oxetan-3-ylmethyl)amino]imidazo[1,2-b]pyridazin-3-yl}-2-methylbenzamide] | 2.9 nM | 105 | 44% | 0.97 nM | > 5000 nM
2 | COc1ccc(Oc2cc(NCCC(F)(F)F)c3ncc(-c4ccc(C(=O)NC5CC5)c(C)c4)n3n2)c(F)c1F [Example 2, N-cyclopropyl-4-{6-(2,3-difluoro-4-methoxyphenoxy)-8-[(3,3,3-trifluoropropyl)amino]imidazo[1,2-b]pyridazin-3-yl}-2-methylbenzamide] | 7.8 nM | – | 72% | – | –
3 | COc1ccc(Oc2cc(NCC3CCOCC3)c3ncc(-c4ccc(C(=O)NC5CC5)c(C)c4)n3n2)c(F)c1F [Example 3, N-cyclopropyl-4-{6-(2,3-difluoro-4-methoxyphenoxy)-8-[(tetrahydro-2H-pyran-4-ylmethyl)amino]imidazo[1,2-b]pyridazin-3-yl}-2-methylbenzamide] | 18.1 nM | 33 | 39% | 0.08 nM | > 10000 nM
4 | Cc1cc(-c2cnc3c(NCCC(F)(F)F)cc(Oc4cccc(F)c4)nn23)ccc1C(=O)NC1CC1 [Ref., N-cyclopropyl-4-{6-(3-fluorophenoxy)-8-[(3,3,3-trifluoropropyl)amino]imidazo[1,2-b]pyridazin-3-yl}-2-methylbenzamide, reference compound] | 23 nM | 3 | 38% | 0.52 nM | > 10000 nM
